Test results published in patent US5399553A, “Tricyclic compound or salts thereof, method for producing the same and anti-microbial agent containing the same” (Wakunaga Seiyaku Kabushiki Kaisha, priority 1990, dated 1995).
In brackets after ≈: the same amount, converted by molar mass.

Key:
[1] = system: S. aureus 209p (IFO 12732); experiment: Antimicrobial activity, minimum inhibitory concentration (MIC), S. aureus 209p; type: cell-based; conditions: Staphylococcus aureus
Protocol: (§1) The minimum inhibitory concentration (MIC: μg/ml) of typical compounds represented by general formula (1) of the present invention is measured by the standard method of Japanese literature "Chemotherapy, Volume 29, No. 1, pp. 76-79, 1981". The results are shown in Table 1 in which compound numbers are the same as those indicated in Examples.

[2] = Recovery in urine after oral administration (absorption and excretion); type: in vivo, male JCL-SD rats; conditions: 20 mg/kg, rat, 20 mg/10 ml/kg in 0.5% methylcellulose, disk method, read-out: Excretion Rate In Urine
Protocol: (§2) The absorbability and excretion after oral administration of the compounds, of the present invention were tested by measuring recovery in urine and in bile as follows.
To a group of three male JCL-SD rats (6 weeks old) fasted overnight, a subject compound was prepared to 20 mg/10 ml/kg with 0.5% of methylcellulose solution and was orally administrated. The sampling was carried out by collecting urine in 0 to 6 hours and 6 to 24 hours. The concentration of the subject compound in the urine was examined by a disk method by using Bacillus subtilis ATCC 33 as a testing bacillus to obtain an excretion rate in urine for 24 hours.

[3] = Recovery in bile after oral administration (absorption and excretion); type: in vivo, rats; conditions: 20 mg/kg, rat, prepared as for urine (20 mg/10 ml/kg), disk method, read-out: Excretion Rate In Bile
Protocol: as §2
A subject compound was prepared in the same manner as the recovery in urine and was orally administrated to the rats and bile was collected by using a polyethylene tube inserted into the choledochus in 24 hours. The concentration of the subject compound in the bile sample was examined in the same manner as the recovery in urine to obtain an excretion rate in bile for 24 hours.

[4] = system: E. coli NIH JC-2 (IFO 12734); experiment: Antimicrobial activity, minimum inhibitory concentration (MIC), E. coli NIH JC-2; type: cell-based; conditions: Escherichia coli, IFO12734
Protocol: as §1

P. aeruginosa (IFO 3445) = experiment: Antimicrobial activity, minimum inhibitory concentration (MIC), P. aeruginosa; type: cell-based; conditions: Pseudomonas aeruginosa, IFO3445
Protocol: as §1

MIC [1] [µg/mL]	dose excreted at 24 h [2] [%]	dose excreted at 24 h [3] [%]	MIC [4] [µg/mL]	MIC (P. aeruginosa (IFO 3445)) [µg/mL]	SMILES
0.1 (≈ 0.277 µM)	59.7	3.8	0.025 (≈ 0.0694 µM)	0.2 (≈ 0.555 µM)	C[C@H]1CN(c2c(F)cc3c(=O)c(C(=O)O)cn4c3c2CCN4C)C[C@H]1N (single isomer, unassigned) [Compound 30, 4-(cis (-) 3-Amino-4-methylpyrrolidin-1-yl)-5-fluoro-2,3-dihydro-1-methyl-7-oxo-1H,7H-pyrido[3,2,1-ij]cinnoline-8-carboxylic acid]
0.78 (≈ 2.25 µM)			0.1 (≈ 0.288 µM)	0.78 (≈ 2.25 µM)	CN1CCc2c(OCC3(N)CC3)c(F)cc3c(=O)c(C(=O)O)cn1c23 [Compound 73]
